The target of one assay is T1, KRAS (G12D) (Homo sapiens, UniProt P01116, G12D).
T1 construct: in-cell western with KRAS G12D antibody after 24 h
Put plainly: KRAS (G12D) cellular degradation assay in AsPC-1 cells. The format is cell-based. The conditions noted are these: 24 hours, antibody fluorescence (Odyssey CLX), DC50 half-maximal degradation concentration. The gist of the method: (§1)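 Read-outs were KRAS G12D immunofluorescence against β-actin after 24 h (DC50) and CellTiter Glo luminescence after 6 days (IC50). Compounds were titrated 1:3 from […] to 1.5 nM final on AsPC-1 cells at 37 °C, 5% CO2.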

Another assay deals with AsPC-1 cells. Put plainly: AsPC-1 cell proliferation assay (CellTiter Glo). The format is cell-based. The conditions noted are these: Homo sapiens, ASPC1, 144 h, 6 days. The essentials: as §1
On the technique in general: In ATP-based viability assays light output follows the ATP content of the culture.

A word on the DC50: it is the concentration giving 50% degradation. The term IC50 denotes the midpoint of a concentration-inhibition curve. The low end stands for greater potency, the high end for weaker potency.

T1 sequence (P01116 1-188 isoform P01116-2 G12D): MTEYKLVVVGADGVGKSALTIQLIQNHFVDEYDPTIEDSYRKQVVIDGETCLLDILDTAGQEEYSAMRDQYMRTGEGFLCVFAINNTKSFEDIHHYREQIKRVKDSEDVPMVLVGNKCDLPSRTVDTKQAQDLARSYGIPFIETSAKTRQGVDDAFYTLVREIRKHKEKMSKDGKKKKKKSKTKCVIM

On KRAS (G12D), `CCn1nccc1-c1ccc([C@H](CO)NC(=O)[C@@H]2C[C@@H](O)CN2C(=O)[C@H](C(C)C)n2cc(-c3ccc(COc4c(-c5c(C)c(F)cc6[nH]ncc56)c(C5CC5)cc5c(N6C[C@@H]7C[C@H]6CN7)nc(O[C@H]6C[C@H](OC)C6)nc45)cc3)nn2)cc1` [Example 74, (2S,4R)-1-((2S)-2-(4-(4-(((4-((1S,4S)-2,5-diazabicyclo[2.2.1]heptan-2-yl)-6-cyclopropyl-7-(6-fluoro-5-methyl-1H-indazol-4-yl)-2-((1r,3S)-3-methoxycyclobutoxy)quinazolin-8-yl)oxy)methyl)phenyl)-1H-1,2,3-triazol-1-yl)-3-methylbutanoyl)-N—((R)-1-(4-(1-ethyl-1H-pyrazol-5-yl)phenyl)-2-hydroxyethyl)-4-hydroxypyrrolidine-2-carboxamide] came in with a DC50 of under 10 nM. Moreover, the half-inhibitory concentration (IC50) in the assay with AsPC-1 cells was under 10 nM.

On KRAS (G12D), `Cc1ncsc1-c1ccc([C@H](CO)NC(=O)[C@@H]2C[C@@H](O)CN2C(=O)[C@H](C(C)C)n2cc(-c3ccc(COc4c(-c5c(C)c(F)c(F)c6[nH]ncc56)c(C5CC5)cc5c(N6C[C@@H]7C[C@H]6CN7)nc(OC6CCOCC6)nc45)cc3)nn2)cc1` [Example 76, (2S,4R)-1-((2S)-2-(4-(4-(((4-((1S,4S)-2,5-diazabicyclo[2.2.1]heptan-2-yl)-6-cyclopropyl-7-(6,7-difluoro-5-methyl-1H-indazol-4-yl)-2-((tetrahydro-2H-pyran-4-yl)oxy)quinazolin-8-yl)oxy)methyl)phenyl)-1H-1,2,3-triazol-1-yl)-3-methylbutanoyl)-4-hydroxy-N—((R)-2-hydroxy-1-(4-(4-methylthiazol-5-yl)phenyl)ethyl)pyrrolidine-2-carboxamide] displayed a DC50 of under 10 nM. The compound also registered an IC50 with AsPC-1 cells of under 10 nM.

The compound `CO[C@@H](C)COc1nc(N2C[C@@H]3C[C@H]2CN3)c2cc(C3CC3)c(-c3c(C)c(F)cc4[nH]ncc34)c(OCc3ccc(-c4cn([C@H](C(=O)N5C[C@H](O)C[C@H]5C(=O)N[C@H](C#Cc5cccc(F)c5)CO)C(C)C)nn4)cc3)c2n1` [Example 77, (2S,4R)-1-((2S)-2-(4-(4-(((4-((1S,4S)-2,5-diazabicyclo[2.2.1]heptan-2-yl)-6-cyclopropyl-7-(6-fluoro-5-methyl-1H-indazol-4-yl)-2-((S)-2-methoxypropoxy)quinazolin-8-yl)oxy)methyl)phenyl)-1H-1,2,3-triazol-1-yl)-3-methylbutanoyl)-N—((R)-4-(3-fluorophenyl)-1-hydroxybut-3-yn-2-yl)-4-hydroxypyrrolidine-2-carboxamide] yielded a 50% degradation concentration (DC50) at KRAS (G12D) of under 10 nM. The IC50 with AsPC-1 cells was under 10 nM.

On to `CO[C@@H](C)COc1nc(N2C[C@@H]3C[C@H]2CN3)c2cc(C3CC3)c(-c3c(C)c(F)cc4[nH]ncc34)c(OCc3ccc(-c4cn([C@H](C(=O)N5C[C@H](O)C[C@H]5C(=O)N[C@H](C#Cc5cccc(Cl)c5F)CO)C(C)C)nn4)cc3)c2n1` [Example 78, (2S,4R)-1-((2S)-2-(4-(4-(((4-((1S,4S)-2,5-diazabicyclo[2.2.1]heptan-2-yl)-6-cyclopropyl-7-(6-fluoro-5-methyl-1H-indazol-4-yl)-2-((S)-2-methoxypropoxy)quinazolin-8-yl)oxy)methyl)phenyl)-1H-1,2,3-triazol-1-yl)-3-methylbutanoyl)-N—((R)-4-(3-chloro-2-fluorophenyl)-1-hydroxybut-3-yn-2-yl)-4-hydroxypyrrolidine-2-carboxamide], for which the 50% degradation concentration (DC50) on KRAS (G12D) fell in the range of 10 to 100 nM. The IC50 in the assay with AsPC-1 cells was under 10 nM.

`Cc1ncsc1-c1ccc([C@H](CO)NC(=O)[C@@H]2C[C@@H](O)CN2C(=O)[C@H](C(C)C)n2cc(-c3ccc(COc4c(-c5c(C)c(F)cc6[nH]ncc56)c(C5CC5)cc5c(N6C[C@@H]7C[C@H]6CN7)nc(OCC6(C(F)F)CC6)nc45)cc3)nn2)cc1` [Example 79, (2S,4R)-1-((2S)-2-(4-(4-(((4-((1S,4S)-2,5-diazabicyclo[2.2.1]heptan-2-yl)-6-cyclopropyl-2-((1-(difluoromethyl)cyclopropyl)methoxy)-7-(6-fluoro-5-methyl-1H-indazol-4-yl)quinazolin-8-yl)oxy)methyl)phenyl)-1H-1,2,3-triazol-1-yl)-3-methylbutanoyl)-4-hydroxy-N—((R)-2-hydroxy-1-(4-(4-methylthiazol-5-yl)phenyl)ethyl)pyrrolidine-2-carboxamide] had a 50% degradation concentration (DC50) at KRAS (G12D) of under 10 nM. The 50% inhibitory concentration (IC50) in the assay on AsPC-1 cells was under 10 nM.

At KRAS (G12D), `CO[C@@H](C)COc1nc(N2C[C@@H]3C[C@H]2CN3)c2cc(C3CC3)c(-c3c(C)c(F)cc4[nH]ncc34)c(OCc3ccc(-c4cn([C@H](C(=O)N5C[C@H](O)C[C@H]5C(=O)N[C@H](C#Cc5cccc6scnc56)CO)C(C)C)nn4)cc3)c2n1` [Example 80] showed a 50% degradation concentration (DC50) of 10 to 100 nM. In the assay with AsPC-1 cells, this compound had an IC50 of 10 to 100 nM.

In turn, `CCn1nccc1C12CC(CNC(=O)[C@@H]3C[C@@H](O)CN3C(=O)[C@H](C(C)C)n3cc(-c4ccc(COc5c(-c6c(C)c(F)cc7[nH]ncc67)c(C6CC6)cc6c(N7C[C@@H]8C[C@H]7CN8)nc(OC[C@H](C)OC)nc56)cc4)nn3)(C1)C2` [Example 81, (2S,4R)-1-((2S)-2-(4-(4-(((4-((1S,4S)-2,5-diazabicyclo[2.2.1]heptan-2-yl)-6-cyclopropyl-7-(6-fluoro-5-methyl-1H-indazol-4-yl)-2-((S)-2-methoxypropoxy)quinazolin-8-yl)oxy)methyl)phenyl)-1H-1,2,3-triazol-1-yl)-3-methylbutanoyl)-N-((3-(1-ethyl-1H-pyrazol-5-yl)bicyclo[1.1.1]pentan-1-yl)methyl)-4-hydroxypyrrolidine-2-carboxamide] returned a DC50 at KRAS (G12D) of 10 to 100 nM. Also, the IC50 in the assay with AsPC-1 cells lay within 10 to 100 nM.

`CO[C@@H](C)COc1nc(N2C[C@@H]3C[C@H]2CN3)c2cc(C3CC3)c(-c3c(C)c(F)cc4[nH]ncc34)c(OCc3ccc(-c4cn([C@H](C(=O)N5C[C@H](O)C[C@H]5C(=O)N[C@H](c5ccc(-c6scnc6C)cc5)[C@H](C)O)C(C)C)nn4)cc3)c2n1` [Example 82, (2S,4R)-1-((2S)-2-(4-(4-(((4-((1S,4S)-2,5-diazabicyclo[2.2.1]heptan-2-yl)-6-cyclopropyl-7-(6-fluoro-5-methyl-1H-indazol-4-yl)-2-((S)-2-methoxypropoxy)quinazolin-8-yl)oxy)methyl)phenyl)-1H-1,2,3-triazol-1-yl)-3-methylbutanoyl)-4-hydroxy-N-((1R,2S)-2-hydroxy-1-(4-(4-methylthiazol-5-yl)phenyl)propyl)pyrrolidine-2-carboxamide] showed a 50% degradation concentration (DC50) at KRAS (G12D) of under 10 nM. In addition, in the assay with AsPC-1 cells, the half-inhibitory concentration (IC50) is under 10 nM.

As to `CCn1nccc1-c1ccc([C@H](CO)NC(=O)[C@@H]2C[C@@H](O)CN2C(=O)[C@H](C(C)C)n2cc(-c3ccc(COc4c(-c5c(C)c(F)cc6[nH]ncc56)c(C5CC5)cc5c(N6C[C@@H]7C[C@H]6CN7)nc(OC(COC)C(F)F)nc45)cc3)nn2)cc1` (stereo partly drawn) [Example 83, (2S,4R)-1-((2S)-2-(4-(4-(((4-((1S,4S)-2,5-diazabicyclo[2.2.1]heptan-2-yl)-6-cyclopropyl-2-((1,1-difluoro-3-methoxypropan-2-yl)oxy)-7-(6-fluoro-5-methyl-1H-indazol-4-yl)quinazolin-8-yl)oxy)methyl)phenyl)-1H-1,2,3-triazol-1-yl)-3-methylbutanoyl)-N—((R)-1-(4-(1-ethyl-1H-pyrazol-5-yl)phenyl)-2-hydroxyethyl)-4-hydroxypyrrolidine-2-carboxamide], the DC50 on KRAS (G12D) was under 10 nM. For the same compound, in the assay on AsPC-1 cells, the IC50 is under 10 nM.

(Values after US20260295053A1, “COMPOUNDS FOR DEGRADATION AND INHIBITION OF KRAS (G12D) PROTEIN” (Shenzhen Ionova Life Science Co., Ltd., priority 2023, published 2026).)
